Results as given in patent publication US10876088B2, “Modular organ microphysiological system with integrated pumping, leveling, and sensing” (Massachusetts Institute of Technology, priority 2016, dated 2020).

Experiments:
[1] = system: immune-competent liver MPS (hepatocytes and Kupffer cells)
Method: (§1) Metabolic and immunologically competent 3D cryopreserved human hepatocytes and kupffer cells were cocultured.
An immune-competent liver MPS model was prepared and studied.

[2] = oral, in vivo; read-out: maximum measured plasma concentration, Cmax; cited from earlier work
[3] = human, in vivo
endometrium MPS = experiment: Drug toxicity in endometrium MPS; format: cell-based
Method: An exemplary endometrium model of cell culture system in a […]® on the MPS platform includes hydrogel encapsulating stromal cells and epithelial cells on top surface of the hydrogel were cultured on the apical side of the […]®. […] The cell line used was Ishikawa human stage 1 adenocarincoma cell line, which were estrogen and progesterone receptor positive, polarized in matrigel (Chitcholtan et al., Exp Cell Research, (2013)) or functionalized PEG gels, and had low/variable secretion of glycodelin. […] The cell line used was human tert-immortalized cell line (tHESC), which was highly proliferative and stable, had low/variable secretion of prolactin or IGF-BP1 without strong decidualization cues, and could be quiesced in PEG gels.
An endometrium MPS model was prepared and studied.

7-way MPS platform = system: 7-way MPS platform
Method: The 7-way platform include gut (immune-competent), liver (immune-competent), lung, endometrium, cardiac, brain, and pancreas MPSs, and was assessed for survivability and function over a 3-week period. Each MPS was differentiated or matured in isolation prior to the interaction study. Platforms were run at a systemic flow rate of Qmix=10 mL/day, with flow partitioning. During the medium changes, a basal common medium was used for the gut, lung, liver, and endometrium MPSs, while the new MPS were supplied with their preferred maintenance media. Each basal medium was then allowed to mix throughout the course of the interaction, with media changes at 48-hour intervals. Functionality of each MPS was evaluated every 2-4 days up to 3 weeks, in comparison to isolated MPSs to benchmark the non-interacting MPS functions.

[4] = system: hepatocyte-Kupffer cocultured liver MPS; experiment: Hydrocortisone effect on cocultured liver MPS; format: cell-based, human
Method: as §1
The secretions of interleukin 6 (IL-6) and tumor necrosis factor alpha (TNFα) of the cocultured liver MPS were measured. The reproducibility of IL-6 response to LPS stimulus was determined. A physiologically-relevant (relatively low) level of cortisol was used in the common media.

[5] = system: immune-competent gut MPS (Caco2, HT29-MTX, dendritic cells)
[6] = system: immune-competent gut-liver interacted MPS; experiment: Gut-liver 2-way MPS, tolcapone added to gut ("oral"); format: cell-based, human
Method: Tolcapone was added to the gut MPS to mimick “oral” administration. Metrics were an volume-weighted average from the 3 media compartments: Signalsystemic=Signalapical, gut*Vapical, gut+Signalbasal, gut*Vbasal, gut+Signalliver*Vliver.

[7] = system: hepatocyte-Kupffer cell co-cultures; experiment: LPS stimulus of hepatocyte-Kupffer co-cultures; format: cell-based, human

O=C(O)Cc1ccccc1Nc1c(Cl)cccc1Cl [Diclofenac, diclofenac]
liver functions [1]: impaired liver functions | cell death ([1]; immune-competent liver MPS): cell death was minimal | Cmax [2]: 2 to 6 µM | free drug elimination per cell rate constant [3]: 1.76×10^−10 (cell*min)^−1 | loss of function and cellular death (endometrium MPS): loss of function correlating with cellular death | absorption and distribution across MPS compartments (7-way MPS platform): absorbed across the gut epithelial barrier | unbound intrinsic clearance CL_int(u) (7-way MPS platform; human): 13.90 µL/min

C[C@]12CCC(=O)C=C1CC[C@@H]1[C@@H]2[C@@H](O)C[C@@]2(C)[C@H]1CC[C@]2(O)C(=O)CO [Hydrocortisone]
CYP450 activity dependence on hydrocortisone levels ([4]; 21 day cultures): sensitive | differentiated function ([4]; cocultured liver MPS): enhanced differentiated function | inflammatory response ([4]; cocultured liver MPS): suppressed inflammatory response

Cc1ccc(C(=O)c2cc(O)c(O)c([N+](=O)[O-])c2)cc1 [Tolcapone]
cell death [5]: severe cellular death | epithelial barrier integrity / epithelial function [5]: complete loss of epithelial function | generic cell death marker [6]: insensitive | gut and liver function [6]: MPS-specific loss of function | cell death markers ([6]; MPS-specific markers): suffered from MPS-specific cell death markers | cell death ([1]; immune-competent liver MPS): caused cell death | mitochondrial activity ([1]; immune-competent liver MPS): decreased mitochondrial activity | loss of function and cellular death (endometrium MPS): loss of function correlating with cellular death

Lipopolysaccharide
lowest LPS stimulus to which co-cultures were responsive [7]: ≥ 0.01 µg/mL
